Test results as given in PubChem BioAssay (NCI).
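Cells were grown in 96-well plates and exposed to each compound for 48 hours at five concentrations; endpoints were interpolated linearly between bracketing concentrations, or set to the highest concentration if not reached. GI50 = concentration required for 50% inhibition of growth. TGI: concentration producing complete growth inhibition.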

Assays:
Assay in all cases: growth of human tumour cells (NCI), 48 h
[1] = tested on: MCF7 breast
[2] = tested on: K-562 leukemia
[3] = tested on: HCC-2998 colon
[4] = tested on: SR leukemia
[5] = tested on: PC-3 prostate
[6] = tested on: KM12 colon
[7] = tested on: LOX IMVI melanoma
[8] = tested on: SF-295 CNS
[9] = tested on: UO-31 renal
[10] = tested on: SNB-75 CNS
[11] = tested on: NCI-H226 lung
[12] = tested on: COLO 205 colon
[13] = tested on: EKVX NSCLC
[14] = tested on: HOP-92 NSCLC
[15] = tested on: NCI/ADR-RES ovarian
[16] = tested on: ACHN renal
[17] = tested on: SW-620 colon
[18] = tested on: MALME-3M melanoma
[19] = tested on: IGROV1 ovarian
[20] = tested on: DU-145 prostate
[21] = tested on: HL-60(TB) leukemia
[22] = tested on: UACC-257 melanoma
[23] = tested on: MDA-MB-468 breast
[24] = tested on: HOP-62 NSCLC
[25] = tested on: BT-549 breast
[26] = tested on: A498 renal
[27] = tested on: NCI-H522 lung
[28] = tested on: MOLT-4 leukemia
[29] = tested on: SF-539 CNS
[30] = tested on: OVCAR-4 ovarian
[31] = tested on: SK-MEL-28 melanoma
[32] = tested on: SK-MEL-2 melanoma
[33] = tested on: SN12C renal
[34] = tested on: SNB-19 CNS
[35] = tested on: SF-268 CNS
[36] = tested on: RXF 393 renal
[37] = tested on: SK-OV-3 ovarian
[38] = tested on: UACC-62 melanoma
[39] = tested on: HCT-15 colon
[40] = tested on: HS 578T breast
[41] = tested on: NCI-H23 lung
[42] = tested on: T-47D breast
[43] = tested on: SK-MEL-5 melanoma
[44] = tested on: TK-10 renal
[45] = tested on: NCI-H460 lung
[46] = tested on: CAKI-1 renal
[47] = tested on: MDA-MB-231 breast
[48] = tested on: M14 melanoma
[49] = tested on: OVCAR-5 ovarian

## O=C(CSc1nnc(-c2ccc3nc(-c4ccc(Cl)cc4)[nH]c3c2)o1)Nc1ccc(Cl)cc1
[1]
  GI50: 1.76 µM
  TGI: 4.08 µM
[2]
  GI50: 2.89 µM
  TGI: > 100 µM
[3]
  GI50: 3.63 µM
  TGI: 14.4 µM
[4]
  GI50: 3.6 µM
  TGI: > 100 µM
[5]
  GI50: 2.44 µM
  TGI: 7.99 µM
[6]
  GI50: 2.78 µM
  TGI: 27 µM
[7]
  GI50: 1.54 µM
  TGI: 2.88 µM
[8]
  GI50: 1.64 µM
  TGI: 3.14 µM
[9]
  GI50: 1.61 µM
  TGI: 4.02 µM
[10]
  GI50: 1.75 µM
  TGI: 5.58 µM
[11]
  GI50: 1.72 µM
  TGI: 4.33 µM
[12]
  GI50: 3.52 µM
  TGI: 28.5 µM
[13]
  GI50: 2.04 µM
  TGI: 6.43 µM
[14]
  GI50: 2.33 µM
  TGI: 6.86 µM
[15]
  GI50: 2.55 µM
  TGI: 6.92 µM
[16]
  GI50: 1.51 µM
  TGI: 3.19 µM
[17]
  GI50: 2.18 µM
  TGI: 5.72 µM
[18]
  GI50: 1.86 µM
  TGI: 4.07 µM
[19]
  GI50: 2.24 µM
  TGI: 7.98 µM
[20]
  GI50: 2.53 µM
  TGI: 6.35 µM
[21]
  GI50: 2.43 µM
  TGI: 7.59 µM
[22]
  GI50: 2.4 µM
  TGI: 6.24 µM
[23]
  GI50: 2.41 µM
  TGI: 6.19 µM
[24]
  GI50: 2.3 µM
  TGI: 5.46 µM
[25]
  GI50: 2.33 µM
  TGI: 5 µM
[26]
  GI50: 12.3 µM
  TGI: 26.4 µM
[27]
  GI50: 2.05 µM
  TGI: 5.61 µM
[28]
  GI50: 2.6 µM
  TGI: > 100 µM
[29]
  GI50: 1.55 µM
  TGI: 2.9 µM
[30]
  GI50: 2.61 µM
  TGI: 7.73 µM
[31]
  GI50: 1.94 µM
  TGI: 4.22 µM
[32]
  GI50: 2.53 µM
  TGI: 7.08 µM
[33]
  GI50: 1.69 µM
  TGI: 3.19 µM
[34]
  GI50: 2.04 µM
  TGI: 4.52 µM
[35]
  GI50: 3.18 µM
  TGI: 77.9 µM
[36]
  GI50: 1.59 µM
  TGI: 3.7 µM
[37]
  GI50: 3.89 µM
  TGI: 14.1 µM
[38]
  GI50: 1.56 µM
  TGI: 3.37 µM
[39]
  GI50: 1.37 µM
  TGI: 3.18 µM
[40]
  GI50: 2.43 µM
  TGI: 8.1 µM
[41]
  GI50: 1.65 µM
  TGI: 3.24 µM
[42]
  GI50: 7.07 µM
  TGI: 68.2 µM
[43]
  GI50: 1.97 µM
  TGI: 4.2 µM
[44]
  GI50: 10.3 µM
  TGI: 26.5 µM
[45]
  GI50: 1.77 µM
  TGI: 3.38 µM
[46]
  GI50: 1.62 µM
  TGI: 3.79 µM
[47]
  GI50: 1.66 µM
  TGI: 3.11 µM
[48]
  GI50: 2.11 µM
  TGI: 5.01 µM
[49]
  GI50: 8.68 µM
  TGI: 23.9 µM
